Experimental data as given in ChEMBL document CHEMBL2375250, “Efficient synthesis of new (R)-2-amino-1-butanol derived ureas, thioureas and acylthioureas and in vitro evaluation of their antimycobacterial activity” (Eur J Med Chem, 2013).
Converted amounts (≈) assume the structure as drawn. Structures can show the parent of a compound that is named as a salt.

Experiments:
[1] = tested on: Mycobacterium tuberculosis; assay: Antimycobacterial activity against Mycobacterium tuberculosis H37Rv assessed as bacterial growth at 5 ug/mL after 45 days by Lowenstein-Jensen method; format: functional
[2] = tested on: Mycobacterium tuberculosis; assay: Antimycobacterial activity against Mycobacterium tuberculosis H37Rv assessed as growth inhibition after 45 days by Lowenstein-Jensen method; format: functional
[3] = tested on: Mycobacterium tuberculosis; assay: Antimycobacterial activity against Mycobacterium tuberculosis assessed as growth inhibition; format: functional
[4] = Selectivity index, ratio of IC50 for HEK293T cells to MIC for Mycobacterium tuberculosis H37Rv; format: functional, HEK-293T
[5] = tested on: HEK-293T; assay: Cytotoxicity against HEK293T cells assessed as cell viability after 72 hrs by MTT assay; format: cell-based; conditions: Homo sapiens
[6] = tested on: Mycolicibacterium aurum; assay: Antimycobacterial activity against Mycobacterium aurum A+ assessed as growth inhibition after 4 days microdrop agar proportion test; format: functional; conditions: 96 h
[7] = tested on: Mycobacterium avium; assay: Antimycobacterial activity against Mycobacterium avium 724 assessed as growth inhibition after 12 days microdrop agar proportion test; format: functional; conditions: Mycobacterium avium, 724, 288 h

Structure (SMILES) | Activity [1] [%] | MIC [2] [µM] | other results
CC[C@H](CO)NC(=S)NC | 100 | > 30.8 | –
CC[C@H](CO)NC(=O)Nc1ccc(NC(=O)N[C@H](CC)CO)cc1 | 100 | > 14.8 | –
CC[C@H](CO)NC(=O)Nc1ccc(Cc2ccc(NC(=O)N[C@H](CC)CO)cc2)cc1 | 100 | > 11.7 | –
CCCNC(=O)N[C@H](CC)CO | 100 | > 28.7 | –
CC(C)=CCC/C(C)=C/CNCCNC1C2CC3CC(C2)CC1C3 (stereo unspecified) [SQ109] | – | – | MIC [3]: 0.7 µM (≈ 0.231 µg/mL)
CC[C@H](CO)NC(=O)NC(C)(C)C | 100 | > 26.6 | –
CC[C@@H](CO)NCCN[C@@H](CC)CO [ETHAMBUTOL HYDROCHLORIDE] | – | 7.22 | MIC [3]: 7.22 µM
CCNC(=S)N[C@H](CC)CO | 100 | > 28.4 | –
CC[C@H](CO)NC(=S)NC(=O)CCc1ccccc1 | – | 7.13 (≈ 2 µg/mL) | Selectivity Index [4]: 9.3; IC50 [5]: 66.2 µM
CC[C@H](CO)NC(=O)Nc1ccccc1 | 100 | > 24 | –
CC[C@H](CO)NC(=O)NC12CC3CC(CC(C3)C1)C2 | 100 | > 18.8 | –
CC[C@H](CO)NC(=O)NCc1ccccc1 | 100 | > 22.5 | –
CC[C@H](CO)NC(=S)NC(=O)c1ccc(N(C)C)cc1 | – | 3.39 (≈ 1 µg/mL) | Selectivity Index [4]: 3.8; IC50 [5]: 12.8 µM
CC[C@H](CO)NC(=O)N(C)C | 100 | > 31.2 | –
CC[C@H](CO)NC(=S)NC(=O)c1ccccc1O | – | 7.46 (≈ 2 µg/mL) | Selectivity Index [4]: 14; IC50 [5]: 104 µM
CC[C@H](CO)NC(=S)NC(=O)/C=C/c1ccccc1 | – | 0.36 (≈ 0.1 µg/mL) | Selectivity Index [4]: 119.2; IC50 [5]: 42.9 µM
CC(C)CCOc1ccc(NC(=S)Nc2ccc(OCCC(C)C)cc2)cc1 [TIOCARLIDE] | – | – | MIC [6]: 4.99 µM; MIC [7]: 4.99 µM (≈ 2 µg/mL)
CC[C@H](CO)NC(=O)N[C@H](C)c1ccccc1 | 100 | > 21.2 | –
CCCCNC(=O)N[C@H](CC)CO | 100 | > 26.6 | –
CC[C@H](CO)NC(=O)NCCCCCCNC(=O)N[C@H](CC)CO | 100 | > 14.4 | –
CC[C@H](CO)NC(=O)NCCc1ccccc1 | 100 | > 21.2 | –
CC[C@H](CO)NC(=O)N[C@H](CC)CO | 100 | > 24.5 | –
CC[C@H](CO)NC(=O)NC1CCCCC1 | 100 | > 23.3 | –
CC[C@H](CO)NC(=O)NCC(c1ccccc1)c1ccccc1 | 100 | 4.8 (≈ 1.5 µg/mL) | –
